Test results: article PMC6956045 (Pharmaceutics, 2019)
Converted amounts (≈) assume the structure as drawn.

Experiments:
[1] = cited from earlier work
[2] = cited from earlier work; remark: listed apart in the source
[3] = Solubility assay: saturation shake-flask method; assay type: physicochemical; details: for solubility at 8 h: thermodynamic from solid, 37 °C, shake-flask
Experimental: The solubility assays were performed according to the World Health Organization (WHO) guidelines protocols. […] A sample concentration was determined using high-performance liquid chromatography (HPLC) with ultraviolet (UV) detection.

Caco-2 cell monolayers = test: Permeability assay: Caco-2 transport studies; assay type: in vitro ADME
Experimental: Caco-2 cells were grown in a polycarbonate membrane. To reach the confluence, 250,000 cells/cm^2 were seeded in six Transwell plates and […] for 19–22 days with Dubelcco’s Modified Eagle’s Media, with 1% L-glutamine, 10% fetal bovine serum, and 1% penicillin/streptomycin, at 37 °C temperature, 90% relative humidity, and 5% CO2.
The confluence of the cells was tested by measuring the transepithelial electrical resistance (TEER). Permeability studies were conducted with an orbital shaking (50 rpm) and with pH 7.0 in both chambers. Standard protocols were described and validated previously in our laboratory. Four samples of 200 µL were taken and replaced with a fresh buffer from the receiver side at 15, 30, 45, and 90 min.
Permeability studies were performed in both directions: apical-to-basal (A-to-B) and basal-to-apical (B-to-A).
The apparent permeability coefficient was calculated according the following equation:(1) Creceiver,t=Qtotal/Vreceiver+Vdonor+((Creceiver,t−1·f)−Qtotal/Vreceiver+Vdonor)·e^−Peff 0,1·S·(1/Vreceiver+1/Vdonor)·Δt where Creceiver,t is the drug concentration in the receiver chamber at time t, Qtotal is the total amount of drug in both chambers, Vreceiver and Vdonor are the volumes of each chamber, Creceiver,t−1 is the drug concentration in the receiver chamber at the previous time, f is the sample replacement dilution factor, S is the surface area of the monolayer, Δt is the time interval, and Peff is the permeability coefficient as was described by Mangas-Sanjuan et al..
Experiments in the presence of the formulation excipients were done by dissolving a formulation tablet in 250 mL of buffer and filtrating the obtained dispersion to eliminate nonsoluble excipients.

[4] = Bulk phase partition coefficient n-octanol/phosphate buffer; assay type: physicochemical; details: pH 6.8, read-out: n-Octanol partition coefficient P (converted)
Experimental: The partition coefficient was calculated as the ratio between octanol concentration and the aqueous concentration. Three replicates were done to determine the average value.
Partition coefficients can be used as an index to provisionally classify compounds in terms of permeability.

Solubility classification [3] | solubility at 8 h ([3]; buffer solution pH 1.2, aqueous buffer, pH 1.2 buffer) [mg/mL] | solubility at 8 h ([3]; buffer solution pH 4.5, aqueous buffer, pH 4.5 buffer) [mg/mL] | solubility at 8 h ([3]; buffer solution pH 6.8, aqueous buffer, pH 6.8 buffer) [mg/mL] | Volume in which the highest strength/dose (40 mg) would be soluble ([3]; pH 1.2) [mL] | Permeability compared with metoprolol (Caco-2 cell monolayers; Caco-2, pH 7.0 both chambers, drug in solution) | Permeability in the presence of sodium azide (Caco-2 cell monolayers; Caco-2, passive diffusion permeability, transporter contribution nullified) | logD [4] | Compound | First-pass hepatic effect (of the absorbed drug) [1] [%] | Intestinal absorption (of dose administered) [1] [%] | log P [2] | pKa [2] | Concentration dependence of permeability (Caco-2 cell monolayers; Caco-2, 50-1000 μM) | Solubility in chloroform [2] | Solubility in water, methanol and acetonitrile [2]
highly soluble | 440 ± 17.4 (≈ 1040 mM) | 504 ± 24.2 (≈ 1190 mM) | 480 ± 17.4 (≈ 1130 mM) | 0.09 | lower than that of metoprolol | as high as metoprolol permeability | -0.155 | CC[C@H](C)C(=O)O[C@H]1C[C@H](O)C=C2C=C[C@H](C)[C@H](CC[C@@H](O)C[C@@H](O)CC(=O)O)[C@H]21 [Pravastatin] | 66 | 34 | 1.65 | 4.21 | permeability increased at higher concentrations | – | –
– | – | – | – | – | – | – | -0.638 | COCCc1ccc(OCC(O)CNC(C)C)cc1 (stereo not shown) [Metoprolol] | – | – | – | – | – | – | –
– | – | – | – | – | – | – | – | CC[C@H](C)C(=O)O[C@H]1C[C@H](O)C=C2C=C[C@H](C)[C@H](CC[C@@H](O)C[C@@H](O)CC(=O)O)[C@H]21 [Pravastatin sodium] | – | – | – | – | – | practically insoluble | easily soluble
